The values below come from ChEMBL document CHEMBL1144364, “Synthesis and biological activity of the tea catechin metabolites, M4 and M6 and their methoxy-derivatives” (Bioorg Med Chem Lett, 2005).

The nature of assay [1]: Percent inhibition of growth of human esophageal squamous cell carcinoma cells, KYSE150 cells, at 50 uM concentration (Range=20-40%). The assay is classed as functional. To be noted: KYSE-150.
In assay [2] the test system is HT-29. Put plainly: Percent inhibition of growth of human colon adenocarcinoma cells, HT-29 cells, at 50 uM concentration; NE=No effect. The assay is classed as functional, cell-based.
Assay [3] relates to HT-29. Put plainly: Inhibitory concentration against human colon adenocarcinoma cells, HT-29 cells (Range=15-73). Format: functional, cell-based.
Assay [4] concerns INT-407 (Homo sapiens). Briefly: Inhibitory concentration against an immortalized human intestinal epithelial cells, INT-407 cells (Range=15-73). To be noted: epithelial cell.
Assay [5] deals with HCT-116. Put plainly: Inhibitory concentration against human colon adenocarcinoma cells, HCT116 cells (Range=15-73). The assay is classed as functional, cell-based.
Assay [6] is described as follows: Inhibitory concentration against human esophageal squamous cell carcinoma cells, KYSE150 cells (Range=15-73). Format: functional.
A short description of assay [7]: Inhibitory concentration against an immortalized rat intestinal epithelial cell line, IEC-6 cell line (Range=15-73). Format: functional, cell-based.
The species entered for assay [8] is Mus musculus. Put plainly: Evaluated to inhibit the release of arachidonic acid and the production of nitric oxide(NO) by lipopolysaccharide (LPS)-stimulated murine macrophages (RAW264.7). The assay is classed as functional, organism-based.
Assay [9] has as its system HCT-116. Briefly: Percent inhibition of growth of human colon adenocarcinoma cells, HCT116 cells. The assay is classed as functional.
The nature of assay [10]: Percent inhibition of growth of human esophageal squamous cell carcinoma cells, KYSE150 cells. The assay is classed as functional.
A short description of assay [11]: Percent inhibition of growth of an immortalized rat intestinal epithelial cell line, IEC-6 cell line. The assay is classed as functional.
The test system of assay [12] is INT-407 (Homo sapiens). Put plainly: Percent inhibition of growth of an immortalized human intestinal epithelial cells, INT-407 cells.
In assay [13] the test system is HT-29. Put plainly: Percent inhibition of growth of human colon adenocarcinoma cells, HT-29 cells. Format: functional.
The species named for assay [14] is Mus musculus. Put plainly: Evaluated to inhibit the release of arachidonic acid and the production of nitric oxide(NO) by lipopolysaccharide (LPS)-stimulated murine macrophages (RAW264.7); NE=No effect. The assay is classed as functional, organism-based.

The source made the active and inactive calls. No cut-off for these calls is given here.

For `COc1ccc(CC2CCC(=O)O2)cc1O` (stereo not drawn), in assay [1], 50 µM produced 40% inhibition. The inhibition (commonly the relative decrease from the control value, in per cent) in assay [2] is “inactive”.

In assay [1], `COc1ccc(CC2CCC(=O)O2)cc1OC` (stereo not drawn) showed an inhibition at 50 µM of 40%. Besides, in [2], the inhibition result is “inactive”.

With `O=C1CCC(Cc2cc(O)c(O)c(O)c2)O1` (stereo not drawn), the 50% inhibitory concentration (IC50) – broadly, the concentration needed to halve the response being measured – in assay [3] came out at 73 µM; in [4], 73 µM; in [5], 73 µM; in assay [6], 73 µM; in [7], 73 µM; in [8], 20 µM.

Molecule `O=C1CCC(Cc2ccc(O)c(O)c2)O1` (stereo not drawn) gave an inhibition at 50 µM in assay [1] of 40%. Also, the inhibition entry in assay [2] is “inactive”.

In the case of `COc1cc(CC2CCC(=O)O2)cc(OC)c1OC` (stereo not drawn), the Inhibition in assay [9], in assay [10], in [11], in assay [12] and in assay [13] was under 20% each time. Also, the IC50 entry in [14] is “Not Active”.
